In patent US4194055A, “15,16-dioxy prostenoic acids and esters” (American Cyanamid Company, priority 1978, dated 1980):

How the values were obtained:
[1] = tested on: basal gastric acid secretion; assay: Inhibition of gastric acid secretion in the acute gastric fistula rat; assay type: in vivo, Female Sprague-Dawley rats; settings: intraduodenal
Description: The compounds of this invention are also useful as inhibitors of gastric acid secretion and peptic ulcer formation and may be used for the treatment of gastric hyperacidity, gastric erosion, and peptic ulcer. Inhibition of basal gastric acid secretion can be determined by the following procedure.
Female Sprague-Dawley rats weighing 140-160 grams are fasted in individual cages for 18-24 hours. The rats are then lightly anesthetized with ether and their front teeth extracted to avoid destruction of the plastic cannula. A midline incision is then made and the stomach and duodenum exposed. A flanged polyvinyl tube is inserted into the fundic portion of the stomach and secured with a purse string suture line using 4-O Mersilene. The rat is then dosed by injection of the compound into the duodenum (1.0 ml. per 100 gram body weight). After dosing, the abdominal wall and skin are closed using metal wound clips. The rat is replaced in a cage containing a longitudinal slit to allow the polyvinyl tube to hang freely. An 8 ml. plastic collecting tube is attached to the flanged cannula and hangs freely below the cage. The first 30 minute sample is discarded designating this time as zero. The collecting tube is attached again and samples removed at the end of 60 and 120 minutes. The hourly samples are then transferred to a 15 ml. centrifuge and centrifuged for 5-10 minutes. Total and sediment volume are then recorded with the supernatant volume being used as volume of secretion. A 1 ml. or less aliquot is then removed and placed in a 50 ml. beaker containing 10 ml. of distilled water. This sample is then titrated using 0.01 N NaOH to pH 7.0 using a Beckman zeromatic pH meter. Volume, titratable acidity (meq/L) and total acid output (ueg/hour) are recorded. Percent inhibition is determined by comparison with the appropriate control. Groups of three rats were used for preliminary testing, and groups of six rats were used for dose-response evaluations. All compounds are administered in a vehicle consisting of 0.5% methocel, 0.4% tween 80, and saline at a constant volume of 1 ml./100 gram rat. Samples are dispersed by sonification. Percent inhibition is calculated on basis of concurrent vehicle control.
In Table B which follows is given the effect on total acid output after 60 minutes (response A) and 120 minutes (response B) for various doses of representative compounds of this invention.

[2] = tested on: bronchospasms elicited by intravenous injections of 5-hydroxytryptamine; assay: Bronchodilator activity (Konzett assay) against 5-hydroxytryptamine; assay type: in vivo, guinea pigs; settings: Cavia porcellus; three logarithmic cummulative intravenous doses; spasmogen 5-hydroxytryptamine i.v.; read-out: Bronchodilator Activity (Konzett Assays) ED50, Spasmogenic Agent 5-Hydroxytryptamine
Description: (§1) The compounds of this invention are useful as bronchodilators for the treatment of asthma and chronic bronchitis. Bronchodilator activity is determined in guinea pigs against bronchospasms elicited by intravenous injections of 5-hydroxytryptamine, histamine or acetylcholine by the Konzett procedure. [See J. Lulling, P. Lievens, F. El Sayed and J. Prignot, Arzneimittel-Forschung, 18, 955 (1968).]
(§2) In Table A which follows bronchodilator activity for representative compounds of this invention against one or more of three spasmogenic agents is expressed in an ED50 determined from the results obtained with three logarithmic cummulative intravenous doses.

[3] = tested on: bronchospasms elicited by intravenous injections of histamine; assay: Bronchodilator activity (Konzett assay) against histamine; assay type: in vivo, guinea pigs; settings: Cavia porcellus; three logarithmic cummulative intravenous doses; spasmogen histamine i.v.; read-out: Bronchodilator Activity (Konzett Assays) ED50, Spasmogenic Agent Histamine
Description: as §1, §2

[4] = tested on: Mean arterial blood pressure; assay: Hypotensive activity in anesthetized normotensive rats; assay type: in vivo, Royalhart, Wistar strain, male; settings: Rattus norvegicus, iv, infused over one minute, read-out: % Decrease Mean Arterial Blood Pressure
Description: The animals used are Royalhart, Wistar strain, male, normotensive rats weighing 250-300 g. The rats are anesthetized using a 100 mg./ml. saline solution of urethane at a rate of 900 mg./kg. intraperitoneally.
The instrumentation used in a Brush model 260 recorder, Statham mode P23Db pressure transducer and Harvard model 940 infusion pump with a 6 cc syringe at speed 4.
The left carotid artery is cannulated with polyethylene tubing for arterial blood pressure. The left external juglar vein is cannulated with polyethylene tubing for […] the test compound is infused over a one minute period in a volume of 0.5 ml., […] (ethanol, 1 M NaHCO3 or saline) and then flushed with 0.4 ml. of saline.
Mean arterial blood pressure is then measured in two test animals per compound against a control value.

[5] = tested on: bronchospasms elicited by intravenous injections of acetylcholine; assay: Bronchodilator activity (Konzett assay) against acetylcholine; assay type: in vivo, guinea pigs; settings: Cavia porcellus; three logarithmic cummulative intravenous doses; spasmogen acetylcholine i.v.; read-out: Bronchodilator Activity (Konzett Assays) ED50, Spasmogenic Agent Acetylcholine
Description: as §1, §2

[6] = tested on: basal gastric acid secretion; assay: Inhibition of gastric acid secretion in the acute gastric fistula rat; assay type: in vivo, Female Sprague-Dawley rats; settings: oral

CCCCC(OC)C(O)/C=C/C1CCC(=O)C1CCCCCCC(=O)OCC (mixture of isomers) [all racemic erythro ethyl 9-oxo-15-hydroxy-16-methoxy-13-trans-prostenoate]
% Inhibition of Total Acid Output After 60 min. ([1]; 10 mg./kg.): 43% | % Inhibition of Total Acid Output After 120 min. ([1]; 10 mg./kg.): 0%

CCCCC(O)C(O)/C=C/C1CCC(=O)C1CCCCCCC(=O)O (mixture of isomers) [all racemic erythro-9-oxo-15,16-dihydroxy-13-trans-prostenoic acid]
ED50 [2]: 0.537 mg/kg | ED50 [3]: 0.01 mg/kg

CCCCC1OC(C)(C)OC1/C=C/C1C(OC2CCCCO2)CC(=O)C1C/C=C\CCCC(=O)O (mixture of isomers) [d,l-erythro-9-oxo-11α-tetrahydropyranyloxy-15,16-isopropylidenedioxy-5-cis,13-trans-prostadienoic acid]
% Inhibition of Total Acid Output After 60 min. ([1]; 10 mg./kg.): 55% | % Inhibition of Total Acid Output After 120 min. ([1]; 10 mg./kg.): 29%

CCCCC1OC(C)(C)OC1/C=C/C1CCC(=O)C1CCCCCCC(=O)O (mixture of isomers) [d,l-erythro-9-oxo-15,16-isopropylidenedioxy-13-trans-prostenoic acid]
inhibition in vivo at 1.3 mg/kg ([4]; 1.3 mg./kg.): 63% | inhibition in vivo at 2.5 mg/kg ([4]; 2.5 mg./kg.): 21%

CCCCC(O)C(O)CCC1CCC(=O)C1CCCCCCC(=O)O (racemic) [all racemic erythro-9-oxo-15,16-dihydroxy-prostanoic acid]
% Inhibition of Total Acid Output After 60 min. ([1]; 10 mg./kg.): 56% | % Inhibition of Total Acid Output After 120 min. ([1]; 10 mg./kg.): 46%

CCCC[C@H](OC)[C@H](O)/C=C/[C@H]1C=CC(=O)[C@@H]1C/C=C\CCCC(=O)O (relative stereo) [d1-erythro-9-oxo-15-hydroxy-16-methoxy-5-cis,10,13-trans-prostatrienoic acid]
inhibition in vivo at 1.9 mg/kg [4]: 26%

CCCC[C@H](OC)[C@H](O)/C=C/[C@H]1[C@H](O)CC(=O)[C@@H]1C/C=C\CCCC(=O)O (relative stereo) [d,1-erythro-9-oxo-11α,15-dihydroxy-16-methoxy-5-cis,13-trans-prostadienoic acid]
inhibition in vivo at 1.8 mg/kg ([4]; 1.8 mg./kg.): 44%

CCCC[C@H](OC)[C@H](O)/C=C/[C@H]1CCC(=O)[C@@H]1CCCCCCC(=O)O (relative stereo) [d,1-erythro-9-oxo-15-hydroxy-16-methoxy-13-trans-prostenoic acid]
ED50 [3]: > 3.2 mg/kg | ED50 [5]: > 0.32 mg/kg | inhibition in vivo at 2.1 mg/kg [4]: 29%

CCCC[C@@H](O)[C@@H](O)/C=C/[C@H]1CCC(=O)[C@@H]1CCCCCCC(=O)OCC (relative stereo) [d,l-erythro ethyl 9-oxo-15-epi-16-dihydroxy-13-trans-prostenoate]
inhibition in vivo at 2.4 mg/kg [4]: 33%

CCCC[C@@H](OC)[C@@H](O)/C=C/[C@H]1CCC(=O)[C@@H]1CCCCCCC(=O)OCC (relative stereo) [d,l-erythro ethyl 9-oxo-15-epi-hydroxy-16-methoxy-13-trans-prostenoate]
inhibition in vivo at 2.3 mg/kg ([4]; 2.3 mg./kg.): 9%

CCCC[C@H](O)[C@H](O)/C=C/[C@H]1CCC(=O)[C@@H]1CCCCCCC(=O)O (relative stereo) [d,l-erythro-9-oxo-15,16-dihydroxy-13-trans-prostenoic acid]
% Inhibition of Total Acid Output After 60 min. ([1]; 2.5 mg./kg.): 77% | % Inhibition of Total Acid Output After 120 min. ([1]; 2.5 mg./kg.): 76% | inhibition in vivo at 2.1 mg/kg [4]: 23%

CCCC[C@@H](O)[C@@H](O)/C=C/[C@H]1CCC(=O)[C@@H]1CCCCCCC(=O)O (relative stereo) [d,l-erythro-9-oxo-15-epi,16-dihydroxy-13-trans-prostenoic acid]
% Inhibition of Total Acid Output After 60 min. ([1]; 10 mg./kg.): 0% | % Inhibition of Total Acid Output After 120 min. ([1]; 10 mg./kg.): 42%

CCCC[C@H](O)[C@H](O)/C=C/[C@H]1[C@H](O)CC(=O)[C@@H]1C/C=C\CCCC(=O)O (relative stereo) [dl-erythro-9-oxo-11α,15,16-trihydroxy-5-cis,13-trans-prostadienoic acid]
ED50 [2]: 0.024 mg/kg | ED50 [3]: 0.0098 mg/kg | ED50 [5]: 0.013 mg/kg | % Inhibition of Total Acid Output After 60 min. ([1]; 10 mg./kg.): 98% | % Inhibition of Total Acid Output After 120 min. ([1]; 10 mg./kg.): 55% | inhibition in vivo at 0.1 mg/kg ([4]; 0.1 mg./kg.): 6% | % Inhibition of Total Acid Output After 60 min. ([6]; 5 mg./kg.): 86% | % Inhibition of Total Acid Output After 120 min. ([6]; 5 mg./kg.): 89%

CCCC[C@@H](O)[C@@H](O)/C=C/[C@H]1[C@H](O)CC(=O)[C@@H]1C/C=C\CCCC(=O)O (relative stereo) [dl-erythro-9-oxo-11α,15-epi,16-trihydroxy-5-cis,13-trans-prostadienoic acid]
ED50 [2]: 1.28 mg/kg | ED50 [5]: 2.43 mg/kg | % Inhibition of Total Acid Output After 60 min. ([1]; 10 mg./kg.): 100% | % Inhibition of Total Acid Output After 120 min. ([1]; 10 mg./kg.): 82% | inhibition in vivo at 2 mg/kg ([4]; 2.0 mg./kg.): 57% | % Inhibition of Total Acid Output After 60 min. ([6]; 10 mg./kg.): 66% | % Inhibition of Total Acid Output After 120 min. ([6]; 10 mg./kg.): 65%

CCCC[C@@H](OC)[C@@H](O)/C=C/[C@H]1[C@H](O)CC(=O)[C@@H]1C/C=C\CCCC(=O)O (relative stereo) [dl-erythro-9-oxo-11α,15-epi-15-hydroxy-16-methoxy-5-cis,13-trans-prostadienoic acid]
inhibition in vivo at 1.9 mg/kg [4]: 19%

CCCC[C@@H](O)[C@@H](O)/C=C/[C@H]1C=CC(=O)[C@@H]1C/C=C\CCCC(=O)O (relative stereo) [dl-erythro-9-oxo-15-epi, 16-dihydroxy-5-cis,10,13-trans-prostatrienoic acid]
inhibition in vivo at 2.1 mg/kg [4]: 54%

CCCC[C@@H](OC)[C@@H](O)/C=C/[C@H]1CCC(=O)[C@@H]1CCCCCCC(=O)O (relative stereo) [dl-erythro-9-oxo-15-epi-hydroxy-16-methoxy-13-trans-prostenoic acid]
ED50 [2]: 7.99 mg/kg | ED50 [3]: > 3.2 mg/kg | ED50 [5]: > 3.2 mg/kg | inhibition in vivo at 2.4 mg/kg [4]: 18%

CCCC[C@@H](O)[C@@H](O)/C=C/[C@@H]1[C@@H](C/C=C\CCCC(=O)O)[C@@H](O)C[C@H]1O (relative stereo) [dl-erythro-9α,11α,15-epi,16-tetrahydroxy-5-cis,13-trans-prostadienoic acid]
inhibition in vivo at 2.2 mg/kg ([4]; 2.2 mg./kg.): 20%
